These compounds were tested against T1, human NaP2b (SLC34A2) (Homo sapiens, UniProt O95436) (assay: Inhibition of NaP2b-mediated Pi (33P) uptake in transfected HEK293 cells, human NaP2b). Details: HEK293 cells transfected with human NaP2b, 100 uM phosphate, 0.1 nM to 30 uM, read-out: pIC50 range for human NaP2b (converted).
T1 construct: host or cells: HEK293
T1 sequence (O95436 1-690): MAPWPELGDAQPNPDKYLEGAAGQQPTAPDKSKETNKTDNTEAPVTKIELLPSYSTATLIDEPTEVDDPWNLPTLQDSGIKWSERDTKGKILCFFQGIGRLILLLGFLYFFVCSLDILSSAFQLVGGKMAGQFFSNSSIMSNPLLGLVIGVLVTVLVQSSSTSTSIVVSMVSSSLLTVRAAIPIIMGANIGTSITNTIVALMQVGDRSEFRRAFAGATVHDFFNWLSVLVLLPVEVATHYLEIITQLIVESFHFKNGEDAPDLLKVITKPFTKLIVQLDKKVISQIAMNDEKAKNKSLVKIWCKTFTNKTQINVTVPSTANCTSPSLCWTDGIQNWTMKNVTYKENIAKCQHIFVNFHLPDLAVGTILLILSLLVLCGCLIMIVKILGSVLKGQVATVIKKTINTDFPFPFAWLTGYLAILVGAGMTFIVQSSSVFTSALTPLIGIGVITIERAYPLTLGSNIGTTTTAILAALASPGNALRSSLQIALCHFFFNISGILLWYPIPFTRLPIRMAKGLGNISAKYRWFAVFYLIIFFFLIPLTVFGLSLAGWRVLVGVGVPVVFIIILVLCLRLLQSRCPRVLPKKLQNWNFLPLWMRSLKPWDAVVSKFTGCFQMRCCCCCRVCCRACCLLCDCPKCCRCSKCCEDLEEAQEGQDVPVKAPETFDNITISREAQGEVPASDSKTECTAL
Type: cell-based
Procedure: (§1) HEK293 cells were obtained from the American Type Culture collection and propagated per their instructions. Expression clones for rat and human NaP2b (SLC34A2) were obtained from Open Biosystems (Catalog numbers MRN1768-9510282, and MHS1010-99823026, respectively). The sequence of the human protein was mutated to insert a threonine after residue 37, and to introduce a N39D mutation.
The rate of phosphate (Pi) uptake into HEK293 cells was measured using a modification of the method described by Mohrmann et al. (Mohrmann, I., Mohrmann, M., Biber, J., and Murer, H. (1986) Am. J. Phys. 250(3 Pt 1):G323-30.) Transfected HEK293 cells were treated with a pharmacological agent to minimize endogenous PiT-mediated phosphate transport activity, such that the only remaining sodium-dependent phosphate transport activity is that which was bestowed by introduction of the NaP2b genes.
(§2) Cells were seeded into 96-well plates at 25,000 cells/well and cultured overnight. Lipofectamine 2000 (Invitrogen) was used to introduce the NaP2b cDNA, and the cells were allowed to approach confluence during a second overnight incubation. […] Cells were then overlayed with either choline uptake buffer or sodium uptake buffer (14 mM Tris, 137 mM sodium chloride, 5.4 mM KCl, 2.8 mM CaCl2, 1.2 mM MgSO4, 100 uM KH2PO4, PiT-silencing agent, 1 mg/mL Bovine Serum Albumin, pH 7.4) containing 6-9 uCi/mL ^33P orthophosphoric acid (Perkin Elmer) and test compound. Each compound was tested at twelve concentrations ranging from 0.1 nM to 30 uM. Assays were run in duplicate.
After incubation for 3-30 minutes at room temperature, assay mixtures were removed, and the cells were washed twice with ice cold stop solution (137 mM sodium chloride, 14 mM Tris, pH 7.4). Cells were lysed by addition of 20 μL 0.1% Tween 80 followed by 100 μL scintillation fluid, and counted using a TopCount (Perkin Elmer).
(§3) pIC50 (the negative log of the […]) values of the test compounds were calculated using GraphPad Prism.

Row | Structure (SMILES) | IC50
1 | CCN(CC)c1ccc(NC(=O)c2cccc(CCCOCCOCCOCCOCCNS(=O)(=O)c3ccc(CCC(=O)NCCOCCOCCOCCOCCOCCOCCOC)cc3)c2)c(-c2cc(C(=O)NCc3cccc(C(F)(F)F)c3)ccn2)c1 [Example 296, 2-(5-(diethylamino)-2-(3-(1-(4-(24-oxo-2,5,8,11,14,17,20-heptaoxa-23-azahexacosan-26-yl)phenylsulfonamido)-3,6,9,12-tetraoxapentadecan-15-yl)benzamido)phenyl)-N-(3-(trifluoromethyl)benzyl)isonicotinamide] | 1 to 7.94 µM
2 | CCN(CC)c1ccc(NC(=O)c2cccc(CCCOCCOCCOCCOCCNC(=O)c3cccc(CCCOCCOCCOCCOCCOCCOCCOCCOCCOC)c3)c2)c(-c2cc(C(=O)NCc3cccc(C(F)(F)F)c3)ccn2)c1 [Example 271, 2-(2-(3-(1-(3-(2,5,8,11,14,17,20,23,26-nonaoxanonacosan-29-yl)phenyl)-1-oxo-5,8,11,14-tetraoxa-2-azaheptadecan-17-yl)benzamido)-5-(diethylamino)phenyl)-N-(3-(trifluoromethyl)benzyl)isonicotinamide] | < 1 µM
3 | CCN(CC)c1ccc(NC(=O)c2cccc(CCCOCCOCCOCCOCCC(=O)NCCOCCOCCOCCOCCOCCOCCOC)c2)c(-c2cc(C(=O)NCc3cccc(C(F)(F)F)c3)ccn2)c1 [Example 260, 2-(5-(diethylamino)-2-(3-(24-oxo-2,5,8,11,14,17,20,27,30,33,36-undecaoxa-23-azanonatriacontan-39-yl)benzamido)phenyl)-N-(3-(trifluoromethyl)benzyl)isonicotinamide] | < 1 µM
4 | CN(CCN1CCC[C@H]1C(=O)N(C)CCOCCOCCOCCC(=O)OC(C)(C)C)C(=O)c1cccc(C(=O)Nc2ccc(N3CCCCC3)cc2-c2cc(C(=O)N[C@H]3CCCc4ccccc43)ccn2)c1 [Example 190, tert-Butyl 2-methyl-1-((S)-1-(2-(N-methyl-3-((4-(piperidin-1-yl)-2-(4-(((S)-1,2,3,4-tetrahydronaphthalen-1-yl)carbamoyl)pyridin-2-yl)phenyl)carbamoyl)benzamido)ethyl)pyrrolidin-2-yl)-1-oxo-5,8,11-trioxa-2-azatetradecan-14-oate] | 1 to 7.94 µM
5 | O=C(O)CCOCCOCCOCCOCCCc1cccc(C(=O)Nc2ccc(OC3CCC3)cc2-c2cc(C(=O)N[C@H]3CCCc4ccccc43)ccn2)c1 [Example 285, (S)-16-(3-((4-cyclobutoxy-2-(4-((1,2,3,4-tetrahydronaphthalen-1-yl)carbamoyl)pyridin-2-yl)phenyl)carbamoyl)phenyl)-4,7,10,13-tetraoxahexadecan-1-oic acid] | < 1 µM

These compounds were tested against T2, rat NaP2b (SLC34A2) (Rattus norvegicus, UniProt Q9JJ09) (assay: Inhibition of NaP2b-mediated Pi (33P) uptake in transfected HEK293 cells, rat NaP2b). Details: HEK293 cells transfected with rat NaP2b, 100 uM phosphate, 0.1 nM to 30 uM, read-out: pIC50 range for rat Nap2b (converted).
T2 construct: host or cells: HEK293
T2 sequence (Q9JJ09 1-695): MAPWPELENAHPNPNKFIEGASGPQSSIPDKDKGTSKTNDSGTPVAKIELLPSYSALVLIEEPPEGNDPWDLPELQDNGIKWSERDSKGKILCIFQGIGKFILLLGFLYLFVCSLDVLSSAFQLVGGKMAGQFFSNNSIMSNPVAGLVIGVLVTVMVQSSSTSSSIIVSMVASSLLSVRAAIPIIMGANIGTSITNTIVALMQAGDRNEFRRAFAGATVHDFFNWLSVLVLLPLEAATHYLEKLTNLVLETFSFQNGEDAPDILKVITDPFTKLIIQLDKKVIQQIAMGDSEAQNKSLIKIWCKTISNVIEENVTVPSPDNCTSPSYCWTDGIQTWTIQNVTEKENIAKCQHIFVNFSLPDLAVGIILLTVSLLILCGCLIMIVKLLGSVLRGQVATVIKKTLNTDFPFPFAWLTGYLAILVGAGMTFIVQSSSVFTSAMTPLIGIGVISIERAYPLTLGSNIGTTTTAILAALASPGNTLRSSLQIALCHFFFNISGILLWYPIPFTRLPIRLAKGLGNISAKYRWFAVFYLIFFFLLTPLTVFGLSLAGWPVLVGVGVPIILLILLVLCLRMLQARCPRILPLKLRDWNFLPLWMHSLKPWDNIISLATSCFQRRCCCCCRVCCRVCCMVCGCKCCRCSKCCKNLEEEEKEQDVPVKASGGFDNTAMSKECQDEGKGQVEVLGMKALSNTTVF
Type: cell-based
Procedure: as §1, §2
Cells were lysed by addition of 20 μL 0.1% Tween 80 followed by 100 μL scintillation fluid, and counted using a TopCount (Perkin Elmer).
as §3

Row | Structure (SMILES) | IC50
6 | CN(Cc1cccc(C(=O)Nc2ccc(N3CCCCC3)cc2-c2cc(C(=O)NCc3cccc(C(F)(F)F)c3)ccn2)n1)C(=O)CN1CCOCC1 [Example 53, 6-((N-Methyl-2-morpholinoacetamido)methyl)-N-(4-(piperidin-1-yl)-2-(4-((3-(trifluoromethyl)benzyl)carbamoyl)pyridin-2-yl)phenyl)picolinamide] | 1 to 7.94 µM
7 | O=C(O)CCSCc1cccc(C(=O)Nc2ccc(N3CCCCC3)cc2-c2cc(C(=O)NCc3ccccc3)ccn2)c1 [Example 1.4] | 1 to 7.94 µM
8 | O=C(O)CCSCc1cccc(C(=O)Nc2ccc(Oc3ccccc3)cc2-c2cc(C(=O)NCc3cccc(C(F)(F)F)c3)ccn2)c1 [Example 36, 3-((3-((4-Phenoxy-2-(4-((3-(trifluoromethyl)benzyl)carbamoyl)pyridin-2-yl)phenyl)carbamoyl)benzyl)thio)propanoic acid] | 1 to 7.94 µM
9 | CC(=O)NC1CCN(Cc2cccc(C(=O)Nc3ccc(N4CCCCC4)cc3-c3cc(C(=O)NCc4cccc(C(F)(F)F)c4)ccn3)c2)CC1 [Example 46, 2-(2-(3-((4-Acetamidopiperidin-1-yl)methyl)benzamido)-5-(piperidin-1-yl)phenyl)-N-(3-(trifluoromethyl)benzyl)isonicotinamide] | 10 to 31.6 µM
10 | O=C(O)CCSCc1cccc(C(=O)Nc2ccc(OCC(F)(F)F)cc2-c2cc(C(=O)NCc3cccc(C(F)(F)F)c3)ccn2)c1 [Example 32] | 10 to 31.6 µM
11 | CCN(CC)c1ccc(NC(=O)c2cccc(C(=O)N(C)CCN3CCCN(C(=O)OCCOCCOCCOCCOCCOCCOCCOCCOCCOCCOCCOC)CC3)c2)c(-c2cc(C(=O)N[C@H]3CCCc4ccccc43)ccn2)c1 [Example 199, (S)-2,5,8,11,14,17,20,23,26,29,32-undecaoxatetratriacontan-34-yl 4-(2-(3-((4-(diethylamino)-2-(4-((1,2,3,4-tetrahydronaphthalen-1-yl)carbamoyl)pyridin-2-yl)phenyl)carbamoyl)-N-methylbenzamido)ethyl)-1,4-diazepane-1-carboxylate] | 1 to 7.94 µM
12 | CCCN(CCC)c1ccc(NC(=O)c2cccc(CSCCC(=O)O)c2)c(-c2cc(C(=O)NCc3cccc(C(F)(F)F)c3)ccn2)c1 [Example 19, 3-((3-((4-(Dipropylamino)-2-(4-((3-(trifluoromethyl)benzyl)carbamoyl)pyridin-2-yl)phenyl)carbamoyl)benzyl)thio)propanoic acid] | 1 to 7.94 µM
13 | CC(=O)N1CCN(CCN(C)Cc2cccc(C(=O)Nc3ccc(N4CCCCC4)cc3-c3cc(C(=O)NCc4ccccc4)ccn3)c2)CC1 [Example 41, 2-(2-(3-(((2-(4-Acetylpiperazin-1-yl)ethyl)(methyl)amino)methyl)benzamido)-5-(piperidin-1-yl)phenyl)-N-benzylisonicotinamide] | 10 to 31.6 µM
14 | COC1CCN(c2ccc(NC(=O)c3cccc(CSCCC(=O)O)c3)c(-c3cc(C(=O)NCc4cccc(C(F)(F)F)c4)ccn3)c2)CC1 [Example 31, 3-((3-((4-(4-Methoxypiperidin-1-yl)-2-(4-((3-(trifluoromethyl)benzyl)carbamoyl)-pyridin-2-yl)phenyl)carbamoyl)benzyl)thio)propanoic acid] | 10 to 31.6 µM
15 | CCSc1ccc(NC(=O)c2cccc(CSCCC(=O)O)c2)c(-c2cc(C(=O)NCc3cccc(C(F)(F)F)c3)ccn2)c1 [Example 35, 3-((3-((4-(Ethylthio)-2-(4-((3-(trifluoromethyl)benzyl)carbamoyl)pyridin-2-yl)phenyl)carbamoyl)benzyl)thio)propanoic acid] | 1 to 7.94 µM
16 | O=C(O)CCSCc1cccc(C(=O)Nc2ccc(N3CCCCC3)cc2-c2cc(C(=O)N3CCCC3c3ccccc3)ccn2)c1 (stereo not shown) [Example 1.9] | 10 to 31.6 µM

Reference: patent US9301951B2 (Ardelyx, Inc., priority 2010, dated 2016)
